According to ChEMBL document CHEMBL3045006, “Synthesis and anticonvulsant activity of 8-alkoxy-5,6-dihydro-4H-benzo[f][1,2,4]triazolo[4,3-a]azepine derivatives” (Med Chem Res, 2012):
Calls of active or inactive are those of the source. No cut-off for these calls is given here.

Assays:
Mus musculus [1] = test: Anticonvulsant activity against maximal electroshock-induced seizures in ip dosed Mus musculus Swiss (mouse) administered 30 min before MES induction measured at phase 2; type: functional
[2] = (§1) Neurotoxicity in ip dosed Mus musculus Swiss (mouse) assessed as minimum motor impairment by rotarod test; type: toxicity, organism-based; settings: Swiss, in vivo
Mus musculus [3] = test: Anticonvulsant activity against subcutaneous pentylenetetrazole-induced seizures in Mus musculus Swiss (mouse) at 100 mg/kg, ip measured at phase 1; type: functional, organism-based; design: dose 100 mg/kg
Mus musculus [4] = organism: Mus musculus; test: Protective index, ratio of TD50 for Mus musculus Swiss (mouse) to ED50 for Mus musculus Swiss (mouse) by maximal electroshock-induced seizure test; type: functional
Mus musculus [5] = test: Anticonvulsant activity against subcutaneous pentylenetetrazole-induced seizures in ip dosed Mus musculus Swiss (mouse) at 30 mg/kg, ip measured at phase 2; type: functional; settings: sc
Mus musculus [6] = test: Anticonvulsant activity against subcutaneous pentylenetetrazole-induced seizures in Mus musculus Swiss (mouse) at 30 mg/kg, ip measured at phase 1; type: functional, organism-based; design: dose 30 mg/kg
Mus musculus [7] = test: Protective index, ratio of TD50 for Mus musculus Swiss (mouse) to ED50 for Mus musculus Swiss (mouse) by subcutaneous pentylenetetrazole-induced seizure test; type: functional
Mus musculus [8] = test: Anticonvulsant activity against maximal electroshock-induced seizures in Mus musculus Swiss (mouse) at 30 mg/kg, ip administered 30 min before MES induction measured at phase 1; type: functional, organism-based; design: dose 30 mg/kg
Mus musculus [9] = test: Anticonvulsant activity against maximal electroshock-induced seizures in Mus musculus Swiss (mouse) at 100 mg/kg, ip administered 30 min before MES induction measured at phase 1; type: functional, organism-based; design: dose 100 mg/kg
Mus musculus [10] = test: as §1; type: toxicity, organism-based; settings: in vivo
Mus musculus [11] = test: Anticonvulsant activity against maximal electroshock-induced seizures in Mus musculus Swiss (mouse) at 300 mg/kg, ip administered 30 min before MES induction measured at phase 1; type: functional, organism-based; design: dose 300 mg/kg

## Clc1ccccc1COc1ccc2c(c1)CCCc1nncn1-2
Mus musculus [1]
  ED50: 20.5 mg/kg
[2]
  TD50: 70.9 mg/kg
Mus musculus [3]
  Activity: inactive
Mus musculus [4]
  Ratio TD50/ED50: 3.4
Mus musculus [5]
  ED50: > 100 mg/kg
Mus musculus [6]
  Activity: inactive
Mus musculus [7]
  Ratio TD50/ED50: <0.7
Mus musculus [8]
  Activity: Active

## Fc1ccc(COc2ccc3c(c2)CCCc2nncn2-3)cc1
Mus musculus [1]
  ED50: 27.4 mg/kg
[2]
  TD50: 97.4 mg/kg
Mus musculus [3]
  Activity: Active
Mus musculus [4]
  Ratio TD50/ED50: 3.6
Mus musculus [5]
  ED50: 47.3 mg/kg
Mus musculus [9]
  Activity: Active
Mus musculus [7]
  Ratio TD50/ED50: 2.1

## Cc1ccc(COc2ccc3c(c2)CCCc2nncn2-3)cc1
Mus musculus [1]
  ED50: 27.4 mg/kg
[2]
  TD50: 82.9 mg/kg
Mus musculus [3]
  Activity: inactive
Mus musculus [4]
  Ratio TD50/ED50: 3.6
Mus musculus [5]
  ED50: 90.1 mg/kg
Mus musculus [6]
  Activity: inactive
Mus musculus [9]
  Activity: Active
Mus musculus [7]
  Ratio TD50/ED50: 1.1

## Fc1cccc(COc2ccc3c(c2)CCCc2nncn2-3)c1
Mus musculus [1]
  ED50: 27.4 mg/kg
[2]
  TD50: > 100 mg/kg
Mus musculus [3]
  Activity: Active
Mus musculus [5]
  ED50: > 100 mg/kg
Mus musculus [6]
  Activity: inactive
Mus musculus [9]
  Activity: Active

## CCC1(c2ccccc2)C(=O)NC(=O)NC1=O [PHENOBARBITAL]
Mus musculus [1]
  ED50: 21.8 mg/kg
Mus musculus [5]
  ED50: 13.2 mg/kg

## CCCCCOc1ccc2c(c1)CCCc1nncn1-2
Mus musculus [1]
  ED50: 17.5 mg/kg
[2]
  TD50: 114 mg/kg
Mus musculus [4]
  Ratio TD50/ED50: 6.5
Mus musculus [5]
  ED50: 21.2 mg/kg
Mus musculus [6]
  Activity: Active
Mus musculus [7]
  Ratio TD50/ED50: 5.4
Mus musculus [8]
  Activity: Active

## O=C1NC(=O)C(c2ccccc2)(c2ccccc2)N1 [PHENYTOIN]
Mus musculus [5]
  ED50: > 300 mg/kg

## CCCCCCCOc1ccc2c(c1)CCCc1nncn1-2
Mus musculus [1]
  ED50: 19.7 mg/kg
[2]
  TD50: 68.4 mg/kg
Mus musculus [3]
  Activity: Active
Mus musculus [4]
  Ratio TD50/ED50: 3.5
Mus musculus [5]
  ED50: 26.4 mg/kg
Mus musculus [7]
  Ratio TD50/ED50: 2.6
Mus musculus [8]
  Activity: Active

## NC(=O)N1c2ccccc2C=Cc2ccccc21 [CARBAMAZEPINE]
Mus musculus [1]
  ED50: 8.8 mg/kg
Mus musculus [5]
  ED50: > 100 mg/kg

## c1ccc(COc2ccc3c(c2)CCCc2nncn2-3)cc1
Mus musculus [1]
  ED50: 23.7 mg/kg
[2]
  TD50: 78.9 mg/kg
Mus musculus [3]
  Activity: Active
Mus musculus [4]
  Ratio TD50/ED50: 3.3
Mus musculus [5]
  ED50: 78.9 mg/kg
Mus musculus [6]
  Activity: inactive
Mus musculus [7]
  Ratio TD50/ED50: 1
Mus musculus [8]
  Activity: Active

## Brc1ccc(COc2ccc3c(c2)CCCc2nncn2-3)cc1
Mus musculus [1]
  ED50: 27 mg/kg
[2]
  TD50: 96.2 mg/kg
Mus musculus [3]
  Activity: Active
Mus musculus [4]
  Ratio TD50/ED50: 3
Mus musculus [5]
  ED50: > 100 mg/kg
Mus musculus [6]
  Activity: inactive
Mus musculus [9]
  Activity: Active
Mus musculus [7]
  Ratio TD50/ED50: 0.9

## Clc1cccc(COc2ccc3c(c2)CCCc2nncn2-3)c1
Mus musculus [1]
  ED50: 29.5 mg/kg
[2]
  TD50: 120 mg/kg
Mus musculus [3]
  Activity: Active
Mus musculus [4]
  Ratio TD50/ED50: 4.1
Mus musculus [5]
  ED50: 80.7 mg/kg
Mus musculus [6]
  Activity: inactive
Mus musculus [9]
  Activity: Active
Mus musculus [7]
  Ratio TD50/ED50: 1.5

## CCCCCCOc1ccc2c(c1)CCCc1nncn1-2
Mus musculus [1]
  ED50: 17.7 mg/kg
[2]
  TD50: 84.2 mg/kg
Mus musculus [4]
  Ratio TD50/ED50: 4.8
Mus musculus [5]
  ED50: 24.6 mg/kg
Mus musculus [7]
  Ratio TD50/ED50: 3.4
Mus musculus [8]
  Activity: Active

## CCCC(CCC)C(=O)O [VALPROIC ACID]
Mus musculus [5]
  ED50: 149 mg/kg

## CCCOc1ccc2c(c1)CCCc1nncn1-2
Mus musculus [1]
  ED50: 73.3 mg/kg
Mus musculus [10]
  TD50: Not Active
Mus musculus [3]
  Activity: inactive
Mus musculus [5]
  ED50: > 100 mg/kg
Mus musculus [6]
  Activity: inactive
Mus musculus [9]
  Activity: Active

## COc1ccc2c(c1)CCCc1nncn1-2
Mus musculus [3]
  Activity: inactive
Mus musculus [11]
  Activity: Active
Mus musculus [6]
  Activity: inactive
Mus musculus [8]
  Activity: Active

## CCCCOc1ccc2c(c1)CCCc1nncn1-2
Mus musculus [1]
  ED50: 21.2 mg/kg
[2]
  TD50: 73.3 mg/kg
Mus musculus [3]
  Activity: Active
Mus musculus [4]
  Ratio TD50/ED50: 3.5
Mus musculus [5]
  ED50: 36.7 mg/kg
Mus musculus [7]
  Ratio TD50/ED50: 2
Mus musculus [8]
  Activity: Active

## Fc1ccccc1COc1ccc2c(c1)CCCc1nncn1-2
Mus musculus [1]
  ED50: 19 mg/kg
[2]
  TD50: 84.9 mg/kg
Mus musculus [3]
  Activity: Active
Mus musculus [4]
  Ratio TD50/ED50: 4.5
Mus musculus [5]
  ED50: 35.4 mg/kg
Mus musculus [7]
  Ratio TD50/ED50: 2.4
Mus musculus [8]
  Activity: Active

## Clc1ccc(COc2ccc3c(c2)CCCc2nncn2-3)cc1
Mus musculus [1]
  ED50: 27.4 mg/kg
[2]
  TD50: 98.6 mg/kg
Mus musculus [3]
  Activity: Active
Mus musculus [4]
  Ratio TD50/ED50: 3.7
Mus musculus [5]
  ED50: 68.2 mg/kg
Mus musculus [6]
  Activity: inactive
Mus musculus [9]
  Activity: Active
Mus musculus [7]
  Ratio TD50/ED50: 1.4
